In patent publication US6509344B1, “Indenoisoquinolines as antineoplastic agents” (The United States of America as represented by the …, priority 1998, dated 2003):
Entries after “also recorded” stand apart in the source; their conditions may differ. Like-named read-outs stand apart in the source and are kept apart here.

What was measured:
DU-145 = experiment: NCI human cancer cell line screen (COMPARE screening), Prostate DU-145; assay type: cell-based
Excerpt: (§1) Considering the diversity of cancer in terms of cell type, morphology, growth rate and other cellular characteristics, the U.S. National Cancer Institute (NCI) has developed a “disease-oriented” approach to anticancer activity screening (M. R. Boyd, in “Principle of Practice of Oncology” […]. Rosenberg (Eds.) Vol. 3, PPO Update, No. 10, 1989). This in vitro prescreening system is based on the measurement of anticancer cytotoxicity against human cancer cell line panels consisting of approximately 60 cell lines of major human cancers (including leukemia and slower growing tumor cells such as lung, colon, breast, skin, kidney, etc.) and is referred hereinafter as “COMPARE” screening. An important advantage of the new in vitro screening panels is the opportunity to facilitate identification of compounds that are selectively more cytotoxic to cells of certain types of cancers, thus increasing the ability to select compounds for further study with respect to specific diseases. The indenoisoquinolines were examined for antiproliferative activity against the human cancer cell lines in the National Cancer Institute screen (COMPARE screening), in which the activity of each compound was evaluated with approximately […] different cancer cell lines of diverse tumor origins.

HCT-116 = experiment: NCI human cancer cell line screen (COMPARE screening), Colon HCT-116; assay type: cell-based
Excerpt: as §1

[1] = system: approximately 55 different cancer cell lines of diverse tumor origins; experiment: NCI screen mean graph midpoint over all cell lines tested; assay type: cell-based, human; details: for IC50: average GI50 for all cell lines tested (approximately 55), values outside test range taken as 10^-8 or 10^-4 molar, read-out: MGM (mean graph midpoint)
Excerpt: as §1

SN12C = experiment: NCI human cancer cell line screen (COMPARE screening), Renal SN12C; assay type: cell-based
Excerpt: as §1

human topoisomerase II = experiment: Topoisomerase II-mediated DNA cleavage assay (5'-end-labeled human c-myc DNA); assay type: biochemical
HOP-62 = experiment: NCI human cancer cell line screen (COMPARE screening), Lung HOP-62; assay type: cell-based
Excerpt: as §1

[2] = target: T1, topoisomerase I cleavage complexes (Homo sapiens, UniProt P11387); experiment: Salt reversal of topoisomerase I cleavage complexes; assay type: biochemical; details: increasing salt concentration
T1 sequence (P11387 1-765): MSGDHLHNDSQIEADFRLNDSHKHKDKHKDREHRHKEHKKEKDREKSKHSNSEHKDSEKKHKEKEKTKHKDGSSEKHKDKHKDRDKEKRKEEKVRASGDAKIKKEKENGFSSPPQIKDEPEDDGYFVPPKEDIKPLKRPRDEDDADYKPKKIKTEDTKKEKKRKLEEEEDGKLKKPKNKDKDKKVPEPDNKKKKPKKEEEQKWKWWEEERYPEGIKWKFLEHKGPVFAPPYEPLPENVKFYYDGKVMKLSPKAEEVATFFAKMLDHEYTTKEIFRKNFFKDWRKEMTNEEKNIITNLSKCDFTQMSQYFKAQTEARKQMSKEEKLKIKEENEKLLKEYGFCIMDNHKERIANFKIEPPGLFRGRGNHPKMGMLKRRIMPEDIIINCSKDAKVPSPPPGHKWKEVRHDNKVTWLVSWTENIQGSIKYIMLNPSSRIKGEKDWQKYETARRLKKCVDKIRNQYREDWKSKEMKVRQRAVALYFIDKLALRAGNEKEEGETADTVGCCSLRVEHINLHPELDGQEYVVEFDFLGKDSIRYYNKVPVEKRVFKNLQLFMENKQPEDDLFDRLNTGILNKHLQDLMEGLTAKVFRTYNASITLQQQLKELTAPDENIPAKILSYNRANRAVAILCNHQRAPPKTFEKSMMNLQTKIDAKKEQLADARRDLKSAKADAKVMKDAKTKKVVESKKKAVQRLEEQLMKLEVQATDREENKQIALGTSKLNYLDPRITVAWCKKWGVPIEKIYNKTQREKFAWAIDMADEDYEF

MDA-MB-435 = experiment: NCI human cancer cell line screen (COMPARE screening), Breast MDA-MB-435; assay type: cell-based
Excerpt: as §1

SF-539 = experiment: NCI human cancer cell line screen (COMPARE screening), CNS SF-539; assay type: cell-based
Excerpt: as §1

UACC-62 = experiment: NCI human cancer cell line screen (COMPARE screening), Melanoma UACC-62; assay type: cell-based; details: UACC-62, concentration causing 50% growth inhibition, read-out: Cytotoxicity (G150 in μM) Melanoma UACC-62
Excerpt: as §1

topoisomerase I = target: T2, topoisomerase I (Homo sapiens, UniProt P11387); experiment: Topoisomerase I-mediated DNA cleavage assay (3'-end-labeled 161 bp pBluescript SK(-) fragment); assay type: biochemical; details: for Top 1 Cleavage: relative to the activity of 1 μM camptothecin
T2 sequence (P11387 1-765): T1 sequence (P11387 1-765)
Description: Topoisomerase I-Mediated DNA Cleavage Reactions Using 3′-End-labeled 161 BP Plasmid DNA
The 161 bp fragment from pBluescript SK(−) phagemid DNA (Stratagene, La Jolla, Calif.) was cleaved with the restriction endonuclease Pvu II and Hind III (New England Biolabs, Beverly, Mass.) in supplied NE buffer 2 (10 μL reactions) for 1 h at 37° C., separated by electrophoresis in a 1% agarose gel made in 1×TBE buffer. The 161 bp fragment was eluted from the gel slice (centrilutor by Amicon) and concentrated in a centricon 50 centrifugal concentrator (Amicon, Beverly, Mass.). Approximately 200 ng of the fragment was 3′-end-labeled at the Hind III site by fill-in reaction with [alpha-^32P]-dCTP and 0.5 mM dATP, dGTP, and dTTP, in React 2 buffer (50 mM Tris-HCl, pH 8.0, […], 50 mM NaCl) with 0.5 units of DNA polymerase I (Klenow fragment). Labeling reactions were followed by phenol-chloroform extraction and ethanol precipitation. The resulting 161 bp 3′-endlabeled DNA fragment was resuspended in water. Aliquots (approximately 50,000 dpm/reaction) were incubated with topoisomerase I at 30° C. for 15 min in the presence of the indicated drug. Reactions were terminated by adding 0.5% SDS. After ethanol precipitation, the samples were resuspended in loading buffer (80% formamide, 10 mM sodium hydroxide, 1 mM sodium EDTA, 0.1% xylene cyanol, and 0.1% bromophenol blue, pH 8.0), and separated in a denaturing gel (16% polyacrylamide, 7 M urea) run at 51° C. The gel was dried and visualized by using a Phosphoimager and ImageQuant software (Molecular Dynamics, Sunnyvale, Calif.).

supercoiled SV40 DNA = experiment: SV40 DNA unwinding assay; assay type: biochemical
Description: With some of the compounds (e.g. 27), the activity seemed to increase initially as the concentration was increased, but then it declined at higher concentrations. […] The unwinding assay using supercoiled DNA in the presence of topoisomerase I is a simple procedure to detect DNA intercalation.
After electrophoresis, DNA bands were stained in 10 μg/mL of ethidium bromide and visualized by transillumination with UV light (300 nm).

OVCAR-3 = experiment: NCI human cancer cell line screen (COMPARE screening), Ovarian OVCAR-3; assay type: cell-based
Excerpt: as §1

[3] = Homo sapiens, DU-145, concentration causing 50% growth inhibition, read-out: Cytotoxicity (G150 in μM) Prostate DU-145
[4] = Homo sapiens, HCT-116, concentration causing 50% growth inhibition, read-out: Cytotoxicity (G150 in μM) Colon HCT-116
[5] = Homo sapiens, SN12C, concentration causing 50% growth inhibition, read-out: Cytotoxicity (G150 in μM) Renal SN12C
[6] = Homo sapiens, HOP-62, concentration causing 50% growth inhibition, read-out: Cytotoxicity (G150 in μM) Lung HOP-62
[7] = Homo sapiens, MDA-MB-435, concentration causing 50% growth inhibition, read-out: Cytotoxicity (G150 in μM) Breast MDA-MB-435
[8] = Homo sapiens, SF-539, concentration causing 50% growth inhibition, read-out: Cytotoxicity (G150 in μM) CNS SF-539
[9] = Homo sapiens, OVCAR-3, concentration causing 50% growth inhibition, read-out: Cytotoxicity (G150 in μM) Ovarian OVCAR-3

| Compound | induction of topoisomerase II cleavage complexes (human topoisomerase II) | reversal of induced cleavage sites by salt treatment [2] | activity in the topoisomerase I cleavage assay (in words) (topoisomerase I) | Top 1 Cleavage (topoisomerase I) | IC50 (DU-145; [3]) [µM] | IC50 (HCT-116; [4]) [µM] | IC50 ([1]; Homo sapiens) [µM] | IC50 (SN12C; [5]) [µM] | IC50 (HOP-62; [6]) [µM] | IC50 (MDA-MB-435; [7]) [µM] | IC50 (UACC-62; Homo sapiens) [µM] | IC50 (OVCAR-3; [9]) [µM] | further results |
| --- | --- | --- | --- | --- | --- | --- | --- | --- | --- | --- | --- | --- | --- |
| CCCCn1c2c(c3ccccc3c1=O)C(=O)c1cc3c(cc1-2)OCO3 [Compound 13b, 6-(1-Butyl)-5,6-dihydro-5,11-diketo-8,9-methylenedioxy-11H-indeno[1,2-c]isoquinoline] | no effect |  |  | + (those compounds having between 20% and 50% of the activity of 1 μM camptothecin) | 38 | 2.9 | 30 | 37 | 17 | > 100 | 8.2 | 94 | IC50 (SF-539; [8]): 9 µM |
| COC1=CC2=C(CN1OC)C1=C(c3cc4c(cc3C1=O)OCO4)C(CCCC(C)O)C2=O (stereo not shown) [Compound 19b, 5,6-Dihydro-6-(4-hydroxypent-1-yl)-5,11-diketo-2,3-dimethoxy-8,9-methylenedioxy-11H-indenoisoquinoline] |  |  |  |  |  |  |  |  |  |  |  |  | melting point: 288 to 290 °C |
| O=C(O)CCCn1c2c(c3ccccc3c1=O)C(=O)c1ccccc1-2 [Compound 26, 6-(3-Carboxy-1-propyl)-5,6-dihydro-5,11-diketo-11H-indeno[1,2-c]isoquinoline] | induced topoisomerase II cleavage complexes | reversed by salt treatment | most potent; also recorded: rival the topoisomerase activity of 1 | ++ (those compounds having greater than 50% of the activity of 1 μM camptothecin) | 48 | 40 | 48 | 27 | 87 | > 100 | 73 | > 100 | DNA unwinding at higher concentrations (supercoiled SV40 DNA; at higher concentrations): does unwind DNA |
| CC[C@@]1(O)C(=O)OCc2c1cc1n(c2=O)Cc2cc3ccccc3nc2-1 [Compound 34, camptothecin, reference compound] |  | reversed by salt treatment |  |  |  |  |  |  |  |  |  |  |  |

Continued, in another order:

| induction of topoisomerase II cleavage complexes (human topoisomerase II) | reversal of induced cleavage sites by salt treatment [2] | Compound | activity in the topoisomerase I cleavage assay (in words) (topoisomerase I) | Top 1 Cleavage (topoisomerase I) | IC50 (DU-145; [3]) [µM] | IC50 (HCT-116; [4]) [µM] | IC50 ([1]; Homo sapiens) [µM] | IC50 (SN12C; [5]) [µM] | IC50 (HOP-62; [6]) [µM] | IC50 (MDA-MB-435; [7]) [µM] | IC50 (UACC-62; Homo sapiens) [µM] | IC50 (OVCAR-3; [9]) [µM] | further results |
| --- | --- | --- | --- | --- | --- | --- | --- | --- | --- | --- | --- | --- | --- |
| no effect | reversed by salt treatment | COc1cc2c3c(n(C)c(=O)c2cc1OC)-c1cc2c(cc1C3=O)OCO2 [Compound 1, reference compound] | induce DNA cleavage in the presence of topoisomerase I; also recorded: good activity | ++ (those compounds having greater than 50% of the activity of 1 μM camptothecin) |  |  |  |  |  |  |  |  | IC50 (DU-145; DU-145, concentration causing 50% growth inhibition, read-out: Cytotoxicity (G150 in μM) Prostate DU-145): 37 µM; IC50 (HCT-116; HCT-116, concentration causing 50% growth inhibition, read-out: Cytotoxicity (G150 in μM) Colon HCT-116): 35 µM; IC50 [1]: 20 µM; IC50 (SN12C; SN12C, concentration causing 50% growth inhibition, read-out: Cytotoxicity (G150 in μM) Renal SN12C): 68 µM; IC50 (HOP-62; HOP-62, concentration causing 50% growth inhibition, read-out: Cytotoxicity (G150 in μM) Lung HOP-62): 1.3 µM; IC50 (MDA-MB-435; MDA-MB-435, concentration causing 50% growth inhibition, read-out: Cytotoxicity (G150 in μM) Breast MDA-MB-435): 96 µM; IC50 (SF-539; SF-539, concentration causing 50% growth inhibition, read-out: Cytotoxicity (G150 in μM) CNS SF-539): 41 µM; IC50 (UACC-62): 4.2 µM; DNA unwinding (supercoiled SV40 DNA; supercoiled DNA in the presence of topoisomerase I): did not produce detectable DNA unwinding; also recorded: does not appear to unwind DNA |
| no effect | reversed by salt treatment | C=CCn1c2c(c3cc(OC)c(OC)cc3c1=O)C(=O)c1cc3c(cc1-2)OCO3 [Compound 13c, 6-Allyl-2,3-dimethoxy-5,6-dihydro-5,11-oxo-8,9-(methylenedioxy)-11H-indeno[1,2-c]isoquinoline] | rival the topoisomerase activity of 1 | + (those compounds having between 20% and 50% of the activity of 1 μM camptothecin) |  |  |  |  |  |  |  |  | IC50 (DU-145): 3.2 µM; IC50 (HCT-116): 2.3 µM; IC50 [1]: 4.2 µM; IC50 (SN12C): 2.6 µM; IC50 (HOP-62): 3.4 µM; IC50 (MDA-MB-435): 5.2 µM; IC50 (SF-539): 2.2 µM; IC50 (OVCAR-3): 6.6 µM |
| no effect |  | CCn1c2c(c3cc(OC)c(OC)cc3c1=O)C(=O)c1cc3c(cc1-2)OCO3 [Compound 13k, 6-Ethyl-5,6-dihydro-5,11-diketo-2,3-dimethoxy-8,9-methylenedioxy-11H-indeno[1,2-c]isoquinoline] | very weak activity | ± (those compounds having less than 20% of the activity of 1 μM camptothecin) | 2.3 | 2.6 | 2.4 | 3.6 | 2.2 | 2.6 | 2.1 | 3 | cytotoxicity (MGM) relative to lead compound 1 ([1]; comparison in words): lower MGM than the lead compound 1; IC50 (SF-539; [8]): 2 µM |
